Read-outs that look alike come from different tables or passages of the source.
Key:
CXCR2 = target: T1, CXCR2 (Homo sapiens, UniProt P25025); assay: Human Neutrophil Chemotaxis Assay; assay type: cell-based; set-up: Human neutrophils were purified from freshly drawn human whole blood; endogenous in cells; host or cells: primary human neutrophils from fresh whole blood
T1 sequence (P25025 1-360): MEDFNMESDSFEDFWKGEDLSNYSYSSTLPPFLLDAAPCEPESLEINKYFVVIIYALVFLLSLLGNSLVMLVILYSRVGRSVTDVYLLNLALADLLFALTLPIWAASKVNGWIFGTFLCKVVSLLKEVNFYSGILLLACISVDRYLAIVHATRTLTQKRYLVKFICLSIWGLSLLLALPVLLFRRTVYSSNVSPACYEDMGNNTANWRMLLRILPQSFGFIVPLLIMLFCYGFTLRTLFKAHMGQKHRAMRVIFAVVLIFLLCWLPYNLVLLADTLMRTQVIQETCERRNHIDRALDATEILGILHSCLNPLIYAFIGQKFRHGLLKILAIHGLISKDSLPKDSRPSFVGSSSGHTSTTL
Procedure: After 30 min, the labeled neutrophils were washed twice in chemotaxis buffer, resuspended as before and used immediately. For the assay, test compounds were tested in a dose-response format to determine IC50. Labeled neutrophils (50 μL) were pre-incubated with diluted test compound (50 μL) for 30 min in a 96-well plate (Greiner). Next, 100 μL of diluted compound was mixed with 100 μL of GROα (Peprotech #300-11, 2 nM) in the bottom portion of the chemotaxis chamber. The top portion (insert) of the chemotaxis system containing the FluoroBlok porous membrane was then assembled together. 50 μL of the pre-incubated neutrophils were added to the FluoroBlok insert (top portion) and chemotaxis measured by the neutrophils ability to migrate through the membrane towards the specific CXCR2 ligand, GROα.
IC50 values for compounds of the present invention (Table 12) were determined by the non-linear regression analysis of dose response curves.

CCR6 = target: T2, CCR6 (Homo sapiens, UniProt P51684); assay: CCR6+ T Cell Chemotaxis Assay; assay type: cell-based; conditions: for T Cell Chemotaxis Selectivity: Table 13, T cell chemotaxis compared to neutrophil chemotaxis, NS = not selective for T cell chemotaxis compared to neutrophil chemotaxis
T2 construct: Human CD4+CCR6+CXCR3-T cells were isolated from leukopak from healthy donors; endogenous in cells
T2 sequence (P51684 1-374): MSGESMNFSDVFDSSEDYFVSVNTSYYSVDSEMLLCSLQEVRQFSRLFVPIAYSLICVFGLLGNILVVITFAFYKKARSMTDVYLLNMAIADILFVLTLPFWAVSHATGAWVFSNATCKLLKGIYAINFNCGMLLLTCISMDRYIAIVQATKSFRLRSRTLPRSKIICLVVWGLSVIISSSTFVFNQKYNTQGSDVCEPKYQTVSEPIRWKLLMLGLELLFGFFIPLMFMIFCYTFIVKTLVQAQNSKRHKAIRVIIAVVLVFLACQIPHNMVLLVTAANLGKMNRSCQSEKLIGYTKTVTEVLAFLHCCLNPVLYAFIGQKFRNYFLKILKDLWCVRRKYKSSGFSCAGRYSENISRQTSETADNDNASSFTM
Source text: Human CD4+CCR6+CXCR3-T cells were isolated from leukopak from healthy donors using EasySep™ Human Th17 Cell Enrichment Kit. […] Day 4 post activation, Dynabeads were removed from the culture. The activated T cells were maintained at 1-2×10^6 cells/mL for 15 days by feeding fresh growth media when needed.
For IC50 determination, the top and bottom of the chemotaxis chamber contained the same concentration of compound. DMSO was kept constant at 0.1% (v/v) in all wells. The final concentration of CCL20 (Peprotech 300-29A) in the bottom chamber is 0.5 nM. The fully assembled chemotaxis plate was placed in a cell culture incubator at 37° C., 5% CO2 for 1 h. After incubation, the top filter was removed, followed by a quick freeze of the bottom chamber at −80° C. for 1 h. The migrated cells in the bottom chamber were stained with CyQUANT dye (Life Technologies, C7026) for cell number determination.
IC50 values for compounds of the present invention (Table 11) were determined by the non-linear regression analysis of dose response curves.

[1] = Table 12, human neutrophils migrating towards the CXCR2 ligand GROα, read-out: IC50
[2] = Table 11, human CD4+CCR6+CXCR3- T cells, CCL20 0.5 nM in bottom chamber, 1 h at 37° C., read-out: IC50

IC50 (CXCR2; [1]) | IC50 (CCR6; [2]) | T Cell Chemotaxis Selectivity (CCR6) | SMILES | further results
3160 nM | 5.9 nM | 535 | Cc1cn(C)nc1[C@H](Nc1c(Nc2ccnc(C(=O)N(C)C)c2O)c(=O)c1=O)C1(C)CC2(CC2)C1 (single isomer, unassigned) [Example 17] | 
2510 nM | 24 nM | 104 | Cc1nc([C@H](Nc2c(Nc3ccnc(C(=O)N(C)C)c3O)c(=O)c2=O)C2(C)CCCC2)c(C)o1 (single isomer, unassigned) [Example 34] | R = CH3, T Cell Chemotaxis Selectivity (CCR6; Table 14, R = CH3): 104
255 nM | 30 nM | 8 | CCC1([C@@H](Nc2c(Nc3ccnc(C(=O)N(C)C)c3O)c(=O)c2=O)c2nn(C)cc2C)CCC1 (single isomer, unassigned) [Example 35] | 
7130 nM | 32.3 nM | 220 | Cc1cn(C)nc1[C@H](Nc1c(Nc2ccnc(C(=O)N(C)C)c2O)c(=O)c1=O)[C@]1(C)CC(F)(F)CO1 (single isomer, unassigned) [Example 36] | 
502 nM | 6.5 nM |  | [2H]C([2H])([2H])c1cn(C)nc1[C@H](Nc1c(Nc2ccnc(C(=O)N(C)C)c2O)c(=O)c1=O)C1(C)CCCC1 (single isomer, unassigned) [Example 39] | 
524 nM | 5.8 nM |  | Cc1cn(C)nc1[C@H](Nc1c(Nc2ccnc(C(=O)N(C)C)c2O)c(=O)c1=O)C1(C)CCCC1 [Example 1, (R)-4-((2-(((1,4-Dimethyl-1H-pyrazol-3-yl)(1-methylcyclopentyl)methyl)amino)-3,4-dioxocyclobut-1-en-1-yl)amino)-3-hydroxy-N,N-dimethylpicolinamide] | IC50 (CXCR2; Table 14, R = CH3, read-out: R = CH3, IC50 (nM) CXCR2 Neutrophil, GROα Chemotaxis): 524 nM; IC50 (CCR6; Table 14, R = CH3, read-out: R = CH3, IC50 (nM) CCR6 T cell, CCL20 Chemotaxis): 5.8 nM
7310 nM | 186 nM |  | Cc1cn(C)nc1[C@@H](Nc1c(Nc2ccnc(C(=O)N(C)C)c2O)c(=O)c1=O)C1(C)CCCC1 [Example 2, (S)-4-((2-(((1,4-Dimethyl-1H-pyrazol-3-yl)(1-methylcyclopentyl)methyl)amino)-3,4-dioxocyclobut-1-en-1-yl)amino)-3-hydroxy-N,N-dimethylpicolinamide] | 
1530 nM | 2.3 nM | 665 | Cc1cn(C)nc1[C@H](Nc1c(Nc2ccnc(C(=O)N(C)C(C)C)c2O)c(=O)c1=O)C1(C)CCCC1 [Example 3, (R)-4-((2-(((1,4-Dimethyl-1H-pyrazol-3-yl)(1-methylcyclopentyl)methyl)amino)-3,4-dioxocyclobut-1-en-1-yl)amino)-3-hydroxy-N-isopropyl-N-methylpicolinamide] | 
886 nM | 6.3 nM | 140 | CCN(C)C(=O)c1nccc(Nc2c(N[C@@H](c3nn(C)cc3C)C3(C)CCCC3)c(=O)c2=O)c1O [Example 4, (R)-4-((2-(((1,4-Dimethyl-1H-pyrazol-3-yl)(1-methylcyclopentyl)methyl)amino)-3,4-dioxocyclobut-1-en-1-yl)amino)-N-ethyl-3-hydroxy-N-methylpicolinamide] | 
 | 922 nM |  | CCN(C)C(=O)c1nccc(Nc2c(N[C@H](c3nn(C)cc3C)C3(C)CCCC3)c(=O)c2=O)c1O [Example 5, (S)-4-((2-(((1,4-Dimethyl-1H-pyrazol-3-yl)(1-methylcyclopentyl)methyl)amino)-3,4-dioxocyclobut-1-en-1-yl)amino)-N-ethyl-3-hydroxy-N-methylpicolinamide] | 
586 nM | 11.6 nM | 51 | Cc1cn(C)nc1[C@H](Nc1c(Nc2ccnc(C(=O)N3CCOCC3)c2O)c(=O)c1=O)C1(C)CCCC1 [Example 6, (R)-3-(((1,4-dimethyl-1H-pyrazol-3-yl)(1-methylcyclopentyl)methyl)amino)-4-((3-hydroxy-2-(morpholine-4-carbonyl)pyridin-4-yl)amino)cyclobut-3-ene-1,2-dione] | 
2160 nM | 29.8 nM | 72 | Cc1cn(C)nc1[C@H](Nc1c(Nc2ccnc(C(=O)N3CCN(C)CC3)c2O)c(=O)c1=O)C1(C)CCCC1 [Example 7, (R)-3-(((1,4-Dimethyl-1H-pyrazol-3-yl)(1-methylcyclopentyl)methyl)amino)-4-((3-hydroxy-2-(4-methylpiperazine-1-carbonyl)pyridin-4-yl)amino)cyclobut-3-ene-1,2-dione] | 
103 nM | 3 nM | 34 | CN(C)C(=O)c1nccc(Nc2c(N[C@@H](c3nn(C)cc3Cl)C3(C)CCCC3)c(=O)c2=O)c1O [Example 8, (R)-4-((2-(((4-Chloro-1-methyl-1H-pyrazol-3-yl)(1-methylcyclopentyl)methyl)amino)-3,4-dioxocyclobut-1-en-1-yl)amino)-3-hydroxy-N,N-dimethylpicolinamide] | 
2750 nM | 59.7 nM | 46 | CN(C)C(=O)c1nccc(Nc2c(N[C@H](c3nn(C)cc3Cl)C3(C)CCCC3)c(=O)c2=O)c1O [Example 9, (S)-4-((2-(((4-Chloro-1-methyl-1H-pyrazol-3-yl)(1-methylcyclopentyl)methyl)amino)-3,4-dioxocyclobut-1-en-1-yl)amino)-3-hydroxy-N,N-dimethylpicolinamide] | 
175 nM | 8.7 nM | 20 | CC(C)N(C)C(=O)c1nccc(Nc2c(N[C@@H](c3nn(C)cc3Cl)C3(C)CCCC3)c(=O)c2=O)c1O [Example 10, (R)-4-((2-(((4-Chloro-1-methyl-1H-pyrazol-3-yl)(1-methylcyclopentyl)methyl)amino)-3,4-dioxocyclobut-1-en-1-yl)amino)-3-hydroxy-N-isopropyl-N-methylpicolinamide] | 
210 nM | 1.9 nM | 110 | COc1cn(C)nc1[C@H](Nc1c(Nc2ccnc(C(=O)N(C)C(C)C)c2O)c(=O)c1=O)C1(C)CCCC1 [Example 11, (R)-3-Hydroxy-N-isopropyl-4-((2-(((4-methoxy-1-methyl-1H-pyrazol-3-yl)(1-methyl-cyclopentyl)methyl)amino)-3,4-dioxocyclobut-1-en-1-yl)amino)-N-methylpicolinamide] | 
107 nM | 1.7 nM | 63 | COc1cn(C)nc1[C@H](Nc1c(Nc2ccnc(C(=O)N(C)C)c2O)c(=O)c1=O)C1(C)CCCC1 [Example 12, (R)-3-Hydroxy-4-((2-(((4-methoxy-1-methyl-1H-pyrazol-3-yl)(1-methylcyclopentyl)methyl)amino)-3,4-dioxocyclobut-1-en-1-yl)amino)-N,N-dimethylpicolinamide] | 
 |  |  | Cc1ccc([C@H](Nc2c(Nc3cccc(C(=O)N(C)C)c3O)c(=O)c2=O)C2(C)COC2)o1 [Example 50, reference compound] | IC50 (CXCR2; Table 17, WO 2013/061005 comparator compounds, read-out: IC50 (nM) CXCR2 Neutrophil, GROα Chemotaxis): 121 nM
 |  |  | CC[C@@H](Nc1c(Nc2ccnc(C(=O)N(C)C)c2O)c(=O)c1=O)c1cc(C(C)C)co1 [Example 112, reference compound] | IC50 (CXCR2; Table 15, WO 2010/131145 comparator compounds, read-out: IC50 (nM) CXCR2 Neutrophil, GROα Chemotaxis): 23.2 nM
